{"source": "patent US10577362B2", "about": "“Substituted 2, 4-diamino-quinoline derivatives for use in the treatment of proliferative diseases” (GENOSCIENCE PHARMA, priority 2016, dated 2020)", "key": {"[1]": {"test_system": "786-O (renal adenocarcinoma) cell line", "experiment": "CellTiter-Glo luminescent cell viability assay, 786-O", "type": "cell-based, human", "settings": "Homo sapiens, 786-0, 786-O, 72 h; for viability at 4 µM: compound at 4 μM; for viability at 10 µM: compound at 10 μM", "in_short": "(§1)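 In a 72 h viability assay, compound-treated cells were compared against matched H2O or DMSO diluent controls by luminescence, points in at least duplicate.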"}, "[2]": {"test_system": "HCT-116 (colorectal carcinoma) cell line", "experiment": "CellTiter-Glo luminescent cell viability assay, HCT-116", "type": "cell-based, human", "settings": "Homo sapiens, 72 h; for viability at 4 µM: HCT-116, compound at 4 μM; for viability at 10 µM: HCT-116, compound at 10 μM", "in_short": "as §1"}, "[3]": {"test_system": "Huh7 (hepatocellular carcinoma) cell line", "experiment": "CellTiter-Glo luminescent cell viability assay, Huh7", "type": "cell-based, human", "settings": "Homo sapiens, Huh-7, 72 h; for viability at 4 µM: Huh7, compound at 4 μM; for viability at 10 µM: Huh7, compound at 10 μM", "in_short": "(§2)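 72 h compound exposure, 37 °C, 5% CO2, 10% FBS medium; ATP luminescence read after 30 min RT equilibration. Viability as % of H2O/DMSO diluent control; EC50 = dose giving 50% of control signal. Duplicate points minimum.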"}, "[4]": {"test_system": "PANC-1 (prancreatic carcinoma) cell line", "experiment": "CellTiter-Glo luminescent cell viability assay, PANC-1", "type": "cell-based", "settings": "Homo sapiens, 72 h, % of signal of diluent-treated cultures; for viability at 4 µM: PANC-1, 4 μM; for viability at 10 µM: PANC-1, 10 μM", "in_short": "as §2"}, "[5]": {"test_system": "HepG2 (hepatocellular carcinoma) cell line", "experiment": "CellTiter-Glo luminescent cell viability assay, HepG2", "type": "cell-based, human", "settings": "Homo sapiens, HepG2, HepG, 72 h; for viability at 4 µM: compound at 4 μM; for viability at 10 µM: compound at 10 μM", "in_short": "as §2"}, "[6]": {"test_system": "MOLM-14 (acute myeloid leukemia) cell line", "experiment": "CellTiter-Glo luminescent cell viability assay, MOLM-14", "type": "cell-based, human", "settings": "Homo sapiens, 72 h; for viability at 4 µM: MOLM-14, compound at 4 μM; for viability at 10 µM: MOLM-14, compound at 10 μM", "in_short": "as §2"}, "[7]": {"test_system": "A375 (malignant melanoma) cell line", "experiment": "CellTiter-Glo luminescent cell viability assay, A375", "type": "cell-based, human", "settings": "Homo sapiens, A-375, 72 h; for viability at 4 µM: A375, compound at 4 μM; for viability at 10 µM: A375, compound at 10 μM", "in_short": "as §1"}}, "data": [{"smiles": "CC(C)(C)NC1CCN(c2c(C#N)c(NCc3ccco3)nc3ccccc23)CC1", "note": "[Compound 3302CN, 2-[(furan-2-ylmethyl)amino]-3-cyano-4-[4-(tert-butylamino)piperidin-1-yl]quinoline]", "values": [{"measurement": "viability at 4 µM", "setting": "[1]", "result": 86.1, "unit": "%"}, {"measurement": "viability at 10 µM", "setting": "[1]", "result": 48.1, "unit": "%"}, {"measurement": "viability at 4 µM", "setting": "[2]", "result": 57.4, "unit": "%"}, {"measurement": "viability at 10 µM", "setting": "[2]", "result": 10.8, "unit": "%"}, {"measurement": "viability at 4 µM", "setting": "[3]", "result": 76.6, "unit": "%"}, {"measurement": "viability at 10 µM", "setting": "[3]", "result": 40.1, "unit": "%"}, {"measurement": "viability at 4 µM", "setting": "[4]", "result": 95.8, "unit": "%"}, {"measurement": "viability at 10 µM", "setting": "[4]", "result": 82.3, "unit": "%"}, {"measurement": "viability at 4 µM", "setting": "[5]", "result": 83.3, "unit": "%"}, {"measurement": "viability at 10 µM", "setting": "[5]", "result": 57.5, "unit": "%"}, {"measurement": "viability at 4 µM", "setting": "[6]", "result": 82.3, "unit": "%"}, {"measurement": "viability at 10 µM", "setting": "[6]", "result": 67, "unit": "%"}, {"measurement": "viability at 4 µM", "setting": "[7]", "result": 81.6, "unit": "%"}, {"measurement": "viability at 10 µM", "setting": "[7]", "result": 14.3, "unit": "%"}]}, {"smiles": "CC(C)(C)NC1CCN(c2c(C#N)c(NCc3cccnc3)nc3ccccc23)CC1", "note": "[Compound 3304CN, 2-[(pyridin-3-ylmethyl)amino]-3-cyano-4-[4-(tert-butylamino)piperidin-1-yl]quinoline]", "values": [{"measurement": "viability at 4 µM", "setting": "[1]", "result": 98.9, "unit": "%"}, {"measurement": "viability at 10 µM", "setting": "[1]", "result": 80.7, "unit": "%"}, {"measurement": "viability at 4 µM", "setting": "[2]", "result": 70.6, "unit": "%"}, {"measurement": "viability at 10 µM", "setting": "[2]", "result": 41.6, "unit": "%"}, {"measurement": "viability at 4 µM", "setting": "[3]", "result": 93.3, "unit": "%"}, {"measurement": "viability at 10 µM", "setting": "[3]", "result": 82.8, "unit": "%"}, {"measurement": "viability at 4 µM", "setting": "[4]", "result": 99.3, "unit": "%"}, {"measurement": "viability at 10 µM", "setting": "[4]", "result": 98.7, "unit": "%"}, {"measurement": "viability at 4 µM", "setting": "[5]", "result": 91.2, "unit": "%"}, {"measurement": "viability at 10 µM", "setting": "[5]", "result": 83.4, "unit": "%"}, {"measurement": "viability at 4 µM", "setting": "[6]", "result": 94.2, "unit": "%"}, {"measurement": "viability at 10 µM", "setting": "[6]", "result": 81, "unit": "%"}, {"measurement": "viability at 4 µM", "setting": "[7]", "result": 99.5, "unit": "%"}, {"measurement": "viability at 10 µM", "setting": "[7]", "result": 74.4, "unit": "%"}]}, {"smiles": "CC(C)(C)NC1CCN(c2c(C#N)c(NCc3ccncc3)nc3ccccc23)CC1", "note": "[Compound 3306CN, 2-[(pyridin-4-ylmethyl)amino]-3-cyano-4-[4-(tert-butylamino)piperidin-1-yl]quinoline]", "values": [{"measurement": "viability at 4 µM", "setting": "[1]", "result": 84, "unit": "%"}, {"measurement": "viability at 10 µM", "setting": "[1]", "result": 71.7, "unit": "%"}, {"measurement": "viability at 4 µM", "setting": "[2]", "result": 83.9, "unit": "%"}, {"measurement": "viability at 10 µM", "setting": "[2]", "result": 72.6, "unit": "%"}, {"measurement": "viability at 4 µM", "setting": "[3]", "result": 91.7, "unit": "%"}, {"measurement": "viability at 10 µM", "setting": "[3]", "result": 82.4, "unit": "%"}, {"measurement": "viability at 4 µM", "setting": "[4]", "result": 101, "unit": "%"}, {"measurement": "viability at 10 µM", "setting": "[4]", "result": 93.3, "unit": "%"}, {"measurement": "viability at 4 µM", "setting": "[5]", "result": 83.4, "unit": "%"}, {"measurement": "viability at 10 µM", "setting": "[5]", "result": 71.6, "unit": "%"}, {"measurement": "viability at 4 µM", "setting": "[6]", "result": 97.6, "unit": "%"}, {"measurement": "viability at 10 µM", "setting": "[6]", "result": 94.5, "unit": "%"}, {"measurement": "viability at 4 µM", "setting": "[7]", "result": 79.2, "unit": "%"}, {"measurement": "viability at 10 µM", "setting": "[7]", "result": 77.4, "unit": "%"}]}, {"smiles": "CC(C)(C)NC1CCN(c2c(C#N)c(NCc3ccccn3)nc3ccccc23)CC1", "note": "[Compound 3308CN, 2-[(pyridin-2-ylmethyl)amino]-3-cyano-4-[4-(tert-butylamino)piperidin-1-yl]quinoline]", "values": [{"measurement": "viability at 4 µM", "setting": "[1]", "result": 101, "unit": "%"}, {"measurement": "viability at 10 µM", "setting": "[1]", "result": 81.1, "unit": "%"}, {"measurement": "viability at 4 µM", "setting": "[2]", "result": 72.8, "unit": "%"}, {"measurement": "viability at 10 µM", "setting": "[2]", "result": 32.9, "unit": "%"}, {"measurement": "viability at 4 µM", "setting": "[3]", "result": 88.6, "unit": "%"}, {"measurement": "viability at 10 µM", "setting": "[3]", "result": 74.2, "unit": "%"}, {"measurement": "viability at 4 µM", "setting": "[4]", "result": 102, "unit": "%"}, {"measurement": "viability at 10 µM", "setting": "[4]", "result": 99.1, "unit": "%"}, {"measurement": "viability at 4 µM", "setting": "[5]", "result": 92.6, "unit": "%"}, {"measurement": "viability at 10 µM", "setting": "[5]", "result": 76.5, "unit": "%"}, {"measurement": "viability at 4 µM", "setting": "[6]", "result": 85.8, "unit": "%"}, {"measurement": "viability at 10 µM", "setting": "[6]", "result": 57.1, "unit": "%"}, {"measurement": "viability at 4 µM", "setting": "[7]", "result": 96.3, "unit": "%"}, {"measurement": "viability at 10 µM", "setting": "[7]", "result": 67.7, "unit": "%"}]}]}
